Results taken from patent US20240300932A1, “N-PHENYLIMINE DERIVATIVE AND PREPARATION METHOD AND USE THEREOF” (Guizhou University, priority 2023, published 2024).

Key:
Assay in all cases: Post-emergence herbicidal activity test (stem and leaf spray, pot culture)
Format in all cases: in vivo
Conditions in all cases: 3 weeks after spraying
[1] = tested on: Trifoliumre pensL.
Protocol: (1) Post-Emergence Stem and Leaf Spray Treatment: The weeds were cultivated in a 180 mm×140 mm plastic nutrient pot by a pot-culture method, placed in an enamel tray, and the plastic nutrient pots were filled with surface soil (⅘ of a depth) collected from a farmland and air-dried and sieved, and a soil humidity was controlled at 20% in the initial stage. Weed seeds with plump and uniform grains were selected, soaked in warm water at 25° C. for 6 h, and germinated in a biochemical incubator (dark) at 28° C. The freshly exposed weed seeds were evenly placed on the soil surface, and then covered with 0.5 cm to 1 cm of soil according to the size of the seeds. The weeds are cultivated in a controlled sunlight greenhouse at 20° C. to 30° C., under natural light, and a relative humidity of 57% to 72%. The soil was loam, including 1.63% of organic matters, with a pH value of 7, 84.3 mg/kg of alkaline nitrogen, 38.5 mg/kg of available phosphorus, and 82.1 mg/kg of available potassium. Each treatment was repeated 2 times, each treatment included 12 pots, and 20 weed seeds were sown in each pot. Pesticide was applied in the test for 1 time in total. When the weeds grew to 1.5- to 2-leaf stage, thinning was conducted, with 10 weeds in each pot, and 30 weeds were kept in each treatment. The cultivated weeds were placed on trays with an area of 0.1 m^2, and stems and leaves were sprayed with a sprayer. After applying a pesticide, the pesticide applied weeds were moved into a greenhouse for routine cultivation. 2 weeks after sowing, the test plants were treated at the 2- to 3-leaf stage: the compounds of the present disclosure for testing were dissolved in acetone separately, and added with Tween 80, an emulsifiable oil of 1.5 liters/ha methyl oleate was added as a synergist, and an obtained mixture was diluted with certain water to a certain concentration solution. The solution was sprayed onto the plants using a spray tower. After spraying, the weeds were cultivated in the greenhouse for 3 weeks, and the experimental effects on the weeds were counted. The effective concentrations of the compounds were 10 g/mu, 5 g/mu, and 2.5 g/mu, the experiment was repeated three times, and an average result was taken.

[2] = tested on: Setaria viridis
Protocol: (§1) The weeds were cultivated in a 180 mm×140 mm plastic nutrient pot by a pot-culture method, placed in an enamel tray, and the plastic nutrient pots were filled with surface soil (⅘ of a depth) collected from a farmland and air-dried and sieved, and a soil humidity was controlled at 20% in the initial stage. Weed seeds with plump and uniform grains were selected, soaked in warm water at 25° C. for 6 h, and germinated in a biochemical incubator (dark) at 28° C. The freshly exposed weed seeds were evenly placed on the soil surface, and then covered with 0.5 cm to 1 cm of soil according to the size of the seeds. The weeds are cultivated in a controlled sunlight greenhouse at 20° C. to 30° C., under natural light, and a relative humidity of 57% to 72%. The soil was loam, including 1.63% of organic matters, with a pH value of 7, 84.3 mg/kg of alkaline nitrogen, 38.5 mg/kg of available phosphorus, and 82.1 mg/kg of available potassium.
(§2) Each treatment was repeated 2 times, each treatment included 12 pots, and 20 weed seeds were sown in each pot. Pesticide was applied in the test for 1 time in total. When the weeds grew to 1.5- to 2-leaf stage, thinning was conducted, with 10 weeds in each pot, and 30 weeds were kept in each treatment.
(§3) The cultivated weeds were placed on trays with an area of 0.1 m^2, and stems and leaves were sprayed with a sprayer. After applying a pesticide, the pesticide applied weeds were moved into a greenhouse for routine cultivation.
(§4) 2 weeks after sowing, the test plants were treated at the 2- to 3-leaf stage: the compounds of the present disclosure for testing were dissolved in acetone separately, and added with Tween 80, an emulsifiable oil of 1.5 liters/ha methyl oleate was added as a synergist, and an obtained mixture was diluted with certain water to a certain concentration solution. The solution was sprayed onto the plants using a spray tower. After spraying, the weeds were cultivated in the greenhouse for 3 weeks, and the experimental effects on the weeds were counted. The effective concentrations of the compounds were 10 g/mu, 5 g/mu, and 2.5 g/mu, the experiment was repeated three times, and an average result was taken.
(§5) The activity level criteria for plant destruction (i.e. growth control rate) are as follows: • Grade 5: the growth control rate is greater than or equal to 85%; • Grade 4: the growth control rate is greater than or equal to 60% and less than 85%; • Grade 3: the growth control rate is greater than or equal to 40% and less than 60%; • Grade 2: the growth control rate is greater than or equal to 20% and less than 40%; • Grade 1: the growth control rate is greater than or equal to 5% and less than 20%; and • Grade 0: the growth control rate is less than 5%.
(§6) The growth control rate is a fresh weight control rate.

[3] = tested on: Portulaca oleracea
Protocol: as §1, §2, §3, §4, §5, §6

[4] = tested on: Amaranthus retroflexus
Protocol: as §1, §2, §3, §4, §5, §6

[5] = tested on: Echinochloa crusgalli
Protocol: as §1, §2, §3, §4, §5, §6

[6] = tested on: Abutilon theophrasti
Protocol: as §1, §2, §3, §4, §5, §6

Molecule	Post-emergence herbicidal activity, Trifoliumre pensL. (grade) ([1]; dosage 2.5 g/mu)	Post-emergence herbicidal activity, Trifoliumre pensL. (grade) ([1]; dosage 5 g/mu)	Post-emergence herbicidal activity, Trifoliumre pensL. (grade) ([1]; dosage 10 g/mu)	Post-emergence herbicidal activity, S. viridis (grade) ([2]; dosage 2.5 g/mu)	Post-emergence herbicidal activity, S. viridis (grade) ([2]; dosage 5 g/mu)	Post-emergence herbicidal activity, S. viridis (grade) ([2]; dosage 10 g/mu)	Post-emergence herbicidal activity, P. oleracea (grade) ([3]; dosage 2.5 g/mu)	Post-emergence herbicidal activity, P. oleracea (grade) ([3]; dosage 5 g/mu)	Post-emergence herbicidal activity, P. oleracea (grade) ([3]; dosage 10 g/mu)	Post-emergence herbicidal activity, A. retroflexus (grade) ([4]; dosage 2.5 g/mu)	Post-emergence herbicidal activity, A. retroflexus (grade) ([4]; dosage 5 g/mu)	Post-emergence herbicidal activity, A. retroflexus (grade) ([4]; dosage 10 g/mu)	Post-emergence herbicidal activity, E. crusgalli (grade) ([5]; dosage 2.5 g/mu)	Post-emergence herbicidal activity, E. crusgalli (grade) ([5]; dosage 5 g/mu)	Post-emergence herbicidal activity, E. crusgalli (grade) ([5]; dosage 10 g/mu)	Post-emergence herbicidal activity, A. theophrasti (grade) ([6]; dosage 2.5 g/mu)	Post-emergence herbicidal activity, A. theophrasti (grade) ([6]; dosage 5 g/mu)	Post-emergence herbicidal activity, A. theophrasti (grade) ([6]; dosage 10 g/mu)
2-(4-chloro-2-fluoro-5-(2-oxo-2-(4-methyl)ethoxy)phenyl)-4,5,6,7-tetrahydro-1H-isoindole-1,3(2H)-dione [Compound C2]	5 (Grade 5: the growth control rate is greater than or equal to 85%)	5 (Grade 5: the growth control rate is greater than or equal to 85%)	5 (Grade 5: the growth control rate is greater than or equal to 85%)	2 (Grade 2: the growth control rate is greater than or equal to 20% and less than 40%)	3 (Grade 3: the growth control rate is greater than or equal to 40% and less than 60%)	4 (Grade 4: the growth control rate is greater than or equal to 60% and less than 85%)	5 (Grade 5: the growth control rate is greater than or equal to 85%)	5 (Grade 5: the growth control rate is greater than or equal to 85%)	5 (Grade 5: the growth control rate is greater than or equal to 85%)	5 (Grade 5: the growth control rate is greater than or equal to 85%)	5 (Grade 5: the growth control rate is greater than or equal to 85%)	5 (Grade 5: the growth control rate is greater than or equal to 85%)	1 (Grade 1: the growth control rate is greater than or equal to 5% and less than 20%)	2 (Grade 2: the growth control rate is greater than or equal to 20% and less than 40%)	3 (Grade 3: the growth control rate is greater than or equal to 40% and less than 60%)	5 (Grade 5: the growth control rate is greater than or equal to 85%)	5 (Grade 5: the growth control rate is greater than or equal to 85%)	5 (Grade 5: the growth control rate is greater than or equal to 85%)
O=C1C2=C(CCCC2)C(=O)N1c1cc(OCc2nc(-c3cccc(Cl)c3)no2)c(Cl)cc1F [Compound A3]	4 (Grade 4: the growth control rate is greater than or equal to 60% and less than 85%)	5 (Grade 5: the growth control rate is greater than or equal to 85%)	5 (Grade 5: the growth control rate is greater than or equal to 85%)	2 (Grade 2: the growth control rate is greater than or equal to 20% and less than 40%)	3 (Grade 3: the growth control rate is greater than or equal to 40% and less than 60%)	4 (Grade 4: the growth control rate is greater than or equal to 60% and less than 85%)	4 (Grade 4: the growth control rate is greater than or equal to 60% and less than 85%)	5 (Grade 5: the growth control rate is greater than or equal to 85%)	5 (Grade 5: the growth control rate is greater than or equal to 85%)	5 (Grade 5: the growth control rate is greater than or equal to 85%)	5 (Grade 5: the growth control rate is greater than or equal to 85%)	5 (Grade 5: the growth control rate is greater than or equal to 85%)	1 (Grade 1: the growth control rate is greater than or equal to 5% and less than 20%)	2 (Grade 2: the growth control rate is greater than or equal to 20% and less than 40%)	3 (Grade 3: the growth control rate is greater than or equal to 40% and less than 60%)	5 (Grade 5: the growth control rate is greater than or equal to 85%)	5 (Grade 5: the growth control rate is greater than or equal to 85%)	5 (Grade 5: the growth control rate is greater than or equal to 85%)
